Experimental data from patent publication US7939554B2, “Protein phosphatase inhibitors” (The Cleveland Clinic Foundation, priority 2006, dated 2011).

Key:
[1] = biological target: T1, recombinant SHP-1 (Homo sapiens, UniProt P29350); experiment: rapid in vitro SHP-1 PTPase assay (DIFMUP fluorescence substrate); assay type: biochemical; settings: L5 and analogs, 1 μg/well; FIG. 12A
T1 construct: Recombinant protein of SHP-1 PTPase catalytic domain was described
T1 sequence (P29350 244-515 limits assumed): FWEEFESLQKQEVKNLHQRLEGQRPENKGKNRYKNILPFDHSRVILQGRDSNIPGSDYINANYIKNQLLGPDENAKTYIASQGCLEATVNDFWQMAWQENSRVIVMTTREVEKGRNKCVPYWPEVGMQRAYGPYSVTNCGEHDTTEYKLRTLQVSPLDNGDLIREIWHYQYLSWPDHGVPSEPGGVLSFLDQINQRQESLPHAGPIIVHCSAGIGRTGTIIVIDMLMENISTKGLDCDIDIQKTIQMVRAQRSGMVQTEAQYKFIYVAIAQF
Protocol: Recombinant protein of SHP-1 PTPase catalytic domain was described and stored in Tris buffer (25 mM Tris, pH7.5, 1 mM EDTA, 2 μM 2-ME, 25% glycerol) at −80° C. Fluorescence substrate DIFMUP (6,8-difluoro-4 methylumbelliferyl phosphate) was purchased (Molecular Probes). SSG was reported previously (21-23) and stored at 4° C. in darkness prior to use. Human and mouse IFNγ ELISPOT Kit (R & D System), CD4^+ Cell Intracellular IFNγ Detection Kit (BD Bioscience) and CD8^+ Cell Intracellular IFNγ Detection Kit (BD Bioscience) were purchased from commercial sources. Human Jurkat T cell line (26) and murine B16 melanoma cell line (ATCC) were maintained in […] culture medium supplemented with 10% fetal calf serum (FCS). Antibodies against pLck-pY394 (Cell Signaling), pLck-pY505 (Cell Signaling), pZap70 (pY319, BD Biosciences), pSlp76 (pY128, BD Biosciences) and pLat (pY226, BD Biosciences) were purchased from commercial sources.
A rapid SHP-1 PTPase assay was developed for screening the compounds in a commercial library of 34,000 drug-like small chemicals (Chembridge, Mass.). Briefly, compounds of the library (1 μg/well in […]) were placed in 96-well plates (Falcon, 353072) and mixed with recombinant SHP-1 protein (0.1 μg/well) in […] of HEPES buffer (50 mM HEPS, pH 7.5, 150 mM NaCl, 1 mM EDTA, 0.2 mM DTT and 0.1 mg/ml BSA). The plates were incubated at room temperature for 10 minutes prior to the addition of fluorescence substrate DIFMUP (40 μM stock in HEPES buffer, 10 μl/well) to initiate PTPase reaction. Upon completion of PTPase reaction at room temperature for 1 hr in darkness, fluorescence signal of individual wells were recorded using a Vector^2 Multilabel Counter (Vector, CA). They were compared to that of control SHP-1 PTPase reaction (˜10,000 units of fluorescence signal) in the absence of any compound (100%) for calculating relative SHP-1 inhibition induced by the compounds after subtracting the background signal (˜500 units of fluorescence signal) of the substrate.
To evaluate their SHP-1 inhibitory activity, the analogs (1 μg/well in 0.2 μl DMSO) were aliquot individually to 96-well plates (Falcon, 353072) and mixed with recombinant SHP-1 protein (0.1 μg/well) in 90 μl of HEPES buffer (50 mM HEPS, pH 7.5, 150 mM NaCl, 1 mM EDTA, 0.2 mM DTT and 0.1 mg/ml BSA). The plates were incubated at room temperature for 10 minutes prior to the addition of fluorescence substrate DIFMUP (40 μM stock in HEPES buffer, 10 μl/well) to initiate PTPase reaction. Upon completion of PTPase reaction at room temperature for 1 hr in darkness, fluorescence signal of individual wells were recorded using a Vector^2 Multilabel Counter (Vector, CA). […]

[2] = toxicity in mice (viability); assay type: in vivo, mouse; settings: 10 mg/kg, daily, s.c., two weeks
Protocol: FIG. 3 illustrates differential toxicity of L5 and L6. Jurkat cells were cultured in the absence or presence of lead compound #5 (L5) (A) or #6 (L6) (B) for 6 days prior to quantification of cell growth by MTT assays. Data represent mean±SD of triplicate samples. Balb/c mice were treated with L5 (˜10 mg/kg body weight, s. c., daily, M-F/wk) for two weeks to assess its toxicity in vivo (C).
Spleens were harvested one hour post-treatment on day 4 and processed into splenocytes, which were used for assessing pLck levels by SDS-PAGE/Western blotting and for quantification of IFNγ+ cells by ELISPOT assays. Mice were also treated with L5 (˜10 mg/kg body weight, daily, s. c., n=2) to evaluate the toxicity of the compounds in vivo.

[3] = tested on: mouse splenocytes; experiment: induction of IFNγ+ cells in mouse splenocytes in vitro (ELISPOT); assay type: cell-based
Protocol: The splenocytes were cultured in RPMI 1640 medium supplemented with 10% FCS in the absence or presence of designated agents for 16 hrs in flat-bottom 96-well plates coated with a monoclonal antibody specific for mouse IFNγ (mouse IFNγ ELISPOT Kit, R & D System). The plates were then processed for in situ detection of IFNγ+ cells by ELISA following the manufacturer's procedure. Scanning and counting of IFNγ+ cells in the plates were accomplished using an automatic ELISPOT reader with Immunospot2 software (Cellular Technology Ltd). Mouse splenocytes were also untreated or treated with agents for 16 hrs in culture dishes and then stained with appropriate isotype control antibodies or FICT-labeled anti-CD3 monoclonal antibody (BD) plus PE-labeled monoclonal antibody (BD) for intracellular IFNγ following established procedures. The stained samples were washed 3 times, re-suspended in 200 μl of 1% para-formaldehyde solution and analyzed (20,000 cells/sample) using a BD FACS Caliburs cytometer and WinList software.
The splenocytes were cultured in RPMI 1640 medium supplemented with 10% FCS in the absence or presence of designated agents for 16 hrs in flat-bottom 96-well plates coated with a monoclonal antibody specific for mouse IFNγ (mouse IFNγ ELISPOT Kit, R & D System). The plates were then processed for in situ detection of IFNγ+ cells by ELISA following the manufacturer's procedure. Scanning and counting of IFNγ+ cells in the plates were accomplished using an automatic ELISPOT reader with Immunospot2 software (Cellular Technology Ltd).

[4] = tested on: B16 melanoma tumors; experiment: B16 melanoma tumor growth in athymic nude mice; assay type: in vivo, mouse; settings: 3 mg/kg/day, oral
Protocol: To assess L5 anti-tumor activity, C57BL/6J mice or athymic nude mice (˜8-week old, female, Taconic Farms, Germantown, N.Y.) were inoculated (s.c.) at the flanks with B16 melanoma cells (4×10^4 cells/site). Four days post-inoculation, the mice were treated with PBS (Control) or L5 (˜3 mg/kg body weight/daily, Monday-Friday/week, oral gavage). Tumor volume (n=5) was measured during the study period and calculated using the formula for a prolate spheroid. Student's t test was used for assessing the significance of tumor volume differences among differential treatment groups. Mouse viability (daily) and body weights (weekly) were also recorded during the study period. Major internal organs of the mice were inspected visually upon their termination at the end of the experiment.

[5] = tested on: B16 melanoma tumors
Protocol: Tumor volume (n=5) was measured during the study period and calculated using the formula for a prolate spheroid. Student's t test was used for assessing the significance of tumor volume differences among differential treatment groups. Mouse viability (daily) and body weights (weekly) were also recorded during the study period. Major internal organs of the mice were inspected visually upon their termination at the end of the experiment.
To assess anti-tumor activity, C57BL/6J mice (˜8-week old, female, Taconic Farms, Germantown, N.Y.) were inoculated (s. c.) at the flanks with B16 melanoma cells (4×10^4 cells/site). […] Tumor volume (n=5) was measured during the study period and calculated using the formula for a prolate spheroid. Student's t test was used for assessing the significance of tumor volume differences among differential treatment groups. Mouse viability (daily) and body weights (weekly) were also recorded during the study period. Major internal organs of the mice were inspected visually upon their termination at the end of the experiment.

O=C1C=CC(=O)C(c2cc(Cl)ccc2Cl)=C1 [L5]
inhibition of phosphatase activity of recombinant SHP-1 [1]: completely or almost completely inhibited | mouse viability [2]: all alive | induction of IFNγ+ cells ([3]; 0.001 μg/ml, 16 hrs): inactive | increase of IFNγ+ cells in splenocytes ([3]; 1 μg/ml, 16 hrs): ~14 fold | increase of IFNγ+ cells in splenocytes ([3]; 3 μg/ml, 16 hrs): ~26 fold | increase of IFNγ+ cells in splenocytes ([3]; 10 μg/ml, 16 hrs): ~17 fold | increase of IFNγ+ cells in splenocytes ([3]; 30 μg/ml, 16 hrs): ~10 fold | minimal effective dose for IFNγ+ cell induction ([3]; FIG. 11): 10 ng/mL | induction of IFNγ+ cells ([3]; low doses (0.01 to 1 μg/ml), same mouse, FIG. 16): 3-4 fold | effectiveness relative to SSG in inducing IFNγ+ cells ([3]; maximal induction at a comparable dose, mouse splenocytes): ~58 fold | B16 tumor growth in T-cell-deficient mice [4]: not inhibited | B16 tumor growth inhibition versus control ([5]; 1 mg/kg/daily, M-F/wk, oral, day 22): ~9% | growth inhibition of B16 tumors versus control ([5]; 3 mg/kg/day, oral, M-F/week, end of study): ~83% | tolerance of treated tumor mice (behavior, gross anatomy) ([5]; mouse, in vivo): no apparent abnormality
